From patent US20050209157A1, “Short bioactive peptides and methods for their use” (priority 2001, published 2005)
In brackets after ≈: the same amount, converted by molar mass. Like-named read-outs stand apart in the source and are kept apart here. No end group written: not given here.

Assays:
S. pneumoniae C719 = experiment: Antimicrobial assays II, NCCLS broth microdilution MIC; format: cell-based, Streptococcus pneumoniae; conditions: mean of three, in µg/mL
WI38 = conditions: MTT, 24 hours with peptide; normal fibroblast line
S. pyogenes ATCC19615 = experiment: Antimicrobial assays II, NCCLS broth microdilution MIC; format: cell-based, Streptococcus pyogenes; conditions: mean of three, in µg/mL
S. aureus (MRSA) = format: cell-based, Staphylococcus aureus; conditions: for S. aureus (MRSA) MIC: mean of three, 16 to 20 hours at 35° C.; for MIC S. aureus SAP0017: Table 13, strain SAP0017, in µg/mL
in vitro [1] = format: cell-based, human; conditions: human, human red blood cells, pH 7, hemolytic assay, concentration at 50% hemolysis, 1 hour at 37° C.; read-out: LD50
S. pneumoniae C718 = experiment: Antimicrobial assays II, NCCLS broth microdilution MIC; format: cell-based, Streptococcus pneumoniae; conditions: mean of three
P. acne ATCC 6919 = experiment: as above; format: cell-based, Propionibacterium acnes; conditions: mean of three, in µg/mL
P. aeruginosa H374 [2] = format: cell-based, Pseudomonas aeruginosa; conditions: for MIC Cm-comb.: MIC of chloramphenicol with peptide at ¼ MIC; for MIC Nal-comb.: MIC of nalidixic acid with peptide at ¼ MIC; for FIC Index: 0.5 or less = synergy
How it was run: (§1)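 Synergy against efflux-mutant strains: two-fold dilutions of nalidixic acid or chloramphenicol tested with peptide held at ¼ of its MIC.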

P. aeruginosa = format: cell-based, Pseudomonas aeruginosa; conditions: P. aeruginosa H744; MIC of nalidixic acid with peptide at ¼ MIC
How it was run: as §1

S. pyogenes M76 = experiment: Antimicrobial assays II, NCCLS broth microdilution MIC; format: cell-based, Streptococcus pyogenes; conditions: mean of three; 16 to 20 hours at 35° C.
S. epidermidis C621 = format: cell-based, Staphylococcus epidermidis; conditions: for S. epidermidis C621 MIC: mean of three, 16 to 20 hours at 35° C.; for MIC S. epidermis C621: Table 13, in µg/mL
SW480 = experiment: Anti-cancer assay, MTT, LD50; format: cell-based; conditions: SW480 colon adenocarcinoma line, 24 hours with peptide
Source text: (§2) Numbers are LD50 values (μg/mL).

HeLaS3 = experiment: Anti-cancer assay, MTT, LD50; format: cell-based; conditions: 24 hours with peptide, cervical carcinoma
Source text: as §2

PC3 = experiment: Anti-cancer assay, MTT, LD50; format: cell-based; conditions: 24 hours with peptide, prostate adenocarcinoma
Source text: as §2

H1299 = experiment: Anti-cancer assay, MTT, LD50; format: cell-based; conditions: 24 hours with peptide, lung large cell carcinoma
Source text: as §2

BMKC = experiment: Anti-cancer assay, MTT, LD50; format: cell-based; conditions: BMKC cloned melanoma line, 24 hours with peptide
Source text: as §2

MCF7 = experiment: Anti-cancer assay, MTT, LD50; format: cell-based; conditions: MCF7 breast adenocarcinoma line, MTT, 24 hours with peptide
Source text: as §2

P. aeruginosa H774 = format: cell-based, Pseudomonas aeruginosa; conditions: P. aeruginosa H744; nalidixic acid + peptide at ¼ MIC; 0.5 or less = synergy
How it was run: as §1

P. aeruginosa H374 [3] = format: cell-based, Pseudomonas aeruginosa; conditions: in µg/mL
[4] = system: Pseudomonas aeruginosa H187; format: cell-based; conditions: in µg/mL
Candida albicans 105 = format: cell-based; conditions: Table 13; in µg/mL
[5] = system: Pseudomonas aeruginosa 105663; format: cell-based; conditions: Table 9; in µg/mL
S. typhimurium 14028S = format: cell-based, Salmonella typhimurium; conditions: Table 12
[6] = system: Pseudomonas aeruginosa 100609; format: cell-based; conditions: Table 9; in µg/mL
[7] = system: Candida glabrata ATCC15126; experiment: Antimicrobial assays II, NCCLS broth microdilution MIC; format: cell-based; conditions: Table 13; in µg/mL
E. coli UB1005 = format: cell-based, Escherichia coli; conditions: Table 12
[8] = system: Staphylococcus aureus ATCC 6538; experiment: Antimicrobial assay I, MIC by OD measurement; format: cell-based; conditions: 37° C. for 24 hours, absorbance 620 nm
[9] = system: Pseudomonas aeruginosa ATCC 9027; experiment: Antimicrobial assay I, MIC by OD measurement; format: cell-based; conditions: 37° C. for 24 hours, absorbance 620 nm
in vitro [10] = conditions: human, WI38 normal lung fibroblast cells, LD50 WI38, WI38 normal lung fibroblast line, MTT, 24 hours with peptide
[11] = system: yeast (Saccharomyces cerevisiae); experiment: Antimicrobial assay I, yeast assay in RPMI 1640; format: cell-based; conditions: RPMI 1640 media

Row | Compound | S. pneumoniae MIC (S. pneumoniae C719) | S. pyogenes MIC (S. pyogenes ATCC19615) | S. aureus (MRSA) MIC (S. aureus (MRSA)) | S. pneumoniae MIC (S. pneumoniae C718) | P. acne MIC (P. acne ATCC 6919) | S. pyogenes M76 MIC (S. pyogenes M76) | S. epidermidis C621 MIC (S. epidermidis C621) | MIC P. aeruginosa H374 (P. aeruginosa H374 [3]; Table 9) | MIC P. aeruginosa H374 (P. aeruginosa H374 [3]; Table 12) | MIC S. aureus SAP0017 (S. aureus (MRSA)) | MIC P. aeruginosa H187 ([4]; Table 9) | MIC P. aeruginosa H187 ([4]; Table 12) | MIC C. albicans 105 (Candida albicans 105) | MIC P. aeruginosa Tb 105663 [5] | MIC S. typhimurium 14028S (S. typhimurium 14028S) | MIC S. epidermis C621 (S. epidermidis C621) | MIC P. aeruginosa Tb 100609 [6] | MIC C. glabrata ATCC15126 [7] | MIC E. coli UB1005 (E. coli UB1005) | further results
1 | FAKKFAKKFKKFAKKFAKFAFAF-NH2 [P301, reference compound] | 8 | 8 | 8 µg/mL | > 128 µg/mL | 2 | 8 µg/mL | 4 µg/mL | – | – | – | – | – | – | – | – | – | – | – | – | WI38 LD50 (WI38): 66 µg/mL; HC50 at 1 h (in vitro [1]): 10 µg/mL; MIC Cm-comb. (P. aeruginosa H374 [2]): 16 µg/mL; MIC Nal-comb. (P. aeruginosa H374 [2]): 625 µg/mL; MIC Nal-comb. (P. aeruginosa): 624 µg/mL; LD50 SW480 (SW480): 76 µg/mL; HeLaS3 LD50 (HeLaS3): 170 µg/mL; PC3 LD50 (PC3): 45 µg/mL; H1299 LD50 (H1299): 77 µg/mL; LD50 BMKC (BMKC): 140 µg/mL; LD50 MCF7 (MCF7): 64 µg/mL
2 | CC(C)C[C@H](NC(=O)[C@H](C)NC(=O)[C@H](CC(C)C)NC(=O)[C@H](C)NC(=O)[C@H](CC(C)C)NC(=O)[C@H](CCCCN)NC(=O)[C@H](C)NC(=O)[C@H](CC(C)C)NC(=O)[C@H](CCCCN)NC(=O)[C@H](CCCCN)NC(=O)[C@H](C)NC(=O)[C@H](CC(C)C)NC(=O)[C@H](CCCCN)NC(=O)[C@H](C)NC(=O)[C@H](CC(C)C)NC(=O)[C@H](CCCCN)NC(=O)[C@H](CCCCN)NC(=O)[C@H](C)NC(=O)[C@@H](N)C(C)C)C(N)=O [P504] | 8 | 16 | 4 µg/mL | 64 µg/mL | 4 | 8 µg/mL | 4 µg/mL | – | – | – | – | – | – | – | – | – | – | – | – | HC50 at 1 h (in vitro [1]): 70 µg/mL; MIC Cm-comb. (P. aeruginosa H374 [2]): 16 µg/mL; MIC Nal-comb. (P. aeruginosa H374 [2]): 5000 µg/mL; FIC Index (P. aeruginosa H374 [2]; chloramphenicol + peptide at ¼ MIC): 1.25; FIC Index (P. aeruginosa H374 [2]; nalidixic acid + peptide at ¼ MIC, FIC=0.25+MIC comb/MIC alone): 1.25; MIC Nal-comb. (P. aeruginosa): 1248 µg/mL; FIC Index (P. aeruginosa H774): 2.25
3 | FAKFLAKFLKKAL-NH2 [P111 (75)] | – | – | – | – | – | – | – | 8 | 8 | 8 | 8 | 8 | 32 | 32 | 16 µg/mL | 4 | 16 | 32 | 16 µg/mL | –
4 | CC[C@H](C)[C@H](NC(=O)CNC(=O)[C@H](CC(C)C)NC(=O)[C@H](CCCCN)NC(=O)[C@H](C)NC(=O)[C@H](CC(C)C)NC(=O)[C@H](C)NC(=O)[C@@H](NC(=O)[C@H](CCCCN)NC(=O)[C@H](C)NC(=O)[C@@H](NC(=O)[C@@H](N)CCCCN)[C@@H](C)CC)C(C)C)C(=O)NCC(=O)N[C@@H](C)C(=O)N[C@H](C(=O)N[C@@H](CC(C)C)C(=O)N[C@@H](CCCCN)C(=O)N[C@H](C(=O)N[C@@H](CC(C)C)C(=O)N[C@H](C(=O)N[C@H](C(=O)NCC(=O)N[C@@H](CC(C)C)C(N)=O)[C@@H](C)O)[C@@H](C)O)C(C)C)C(C)C [P105] | 32 | 16 | 32 µg/mL | 64 µg/mL | 16 | 16 µg/mL | 8 µg/mL | – | – | – | – | – | – | – | – | – | – | – | – | staph6538 (MIC) [8]: 200 µg/mL; paerug9027 (MIC) [9]: 200 µg/mL; WI38 LD50 (WI38): 430 µg/mL; CC50 at 24 h (in vitro [10]): 430 µg/mL (≈ 189 µM); yeast (MIC or MFC) [11]: > (> indicates greater than 200 μg/mL); LD50 SW480 (SW480): > (> indicates greater than 1000); HeLaS3 LD50 (HeLaS3): > (> indicates greater than 1000); H1299 LD50 (H1299): > (> indicates greater than 1000); LD50 MCF7 (MCF7): 635 µg/mL
5 | VALALKALKKLLKKLKKLAKKAL-NH2 [P510 (161)] | – | – | – | – | – | – | – | 8 | 8 | 8 | 8 | 8 | 32 | 16 | 16 µg/mL | 4 | 16 | 64 | 8 µg/mL | –
6 | FAKKLAKLALKLAKL-NH2 [P44 (26)] | – | – | – | – | – | – | – | 8 | 8 | 8 | 8 | 8 | 8 | 16 | 4 µg/mL | 4 | 8 | 16 | 1 µg/mL | –
7 | FALKALKKLKKALKKAL-NH2 [P153 (115)] | – | – | – | – | – | – | – | 4 | 4 | 16 | 8 | 8 | 16 | 8 | 8 µg/mL | 4 | 8 | 16 | 8 µg/mL | –
8 | FAKLLAKLAKKLL-NH2 [P43 (25)] | – | – | – | – | – | – | – | 8 | 8 | 4 | 8 | 8 | 8 | 8 | 8 µg/mL | 2 | 8 | 16 | 8 µg/mL | –
